Among the data in patent publication US11629145B2, “SHP2 phosphatase inhibitors and methods of use thereof” (Relay Therapeutics, Inc., priority 2016, dated 2023) are IC50 values, retold here.

The target of this assay is SHP2 (Homo sapiens (Human), UniProt Q06124). The assay is described as follows: SHP2 Allosteric Inhibition Assay. It counts as biochemical. To be noted: 0.25 nM SHP2 activated with 0.5 μM bis-phosphorylated IRS1 peptide; DiFMUP substrate, prompt fluorescence.
Sequence of SHP2 (Q06124 whole entry): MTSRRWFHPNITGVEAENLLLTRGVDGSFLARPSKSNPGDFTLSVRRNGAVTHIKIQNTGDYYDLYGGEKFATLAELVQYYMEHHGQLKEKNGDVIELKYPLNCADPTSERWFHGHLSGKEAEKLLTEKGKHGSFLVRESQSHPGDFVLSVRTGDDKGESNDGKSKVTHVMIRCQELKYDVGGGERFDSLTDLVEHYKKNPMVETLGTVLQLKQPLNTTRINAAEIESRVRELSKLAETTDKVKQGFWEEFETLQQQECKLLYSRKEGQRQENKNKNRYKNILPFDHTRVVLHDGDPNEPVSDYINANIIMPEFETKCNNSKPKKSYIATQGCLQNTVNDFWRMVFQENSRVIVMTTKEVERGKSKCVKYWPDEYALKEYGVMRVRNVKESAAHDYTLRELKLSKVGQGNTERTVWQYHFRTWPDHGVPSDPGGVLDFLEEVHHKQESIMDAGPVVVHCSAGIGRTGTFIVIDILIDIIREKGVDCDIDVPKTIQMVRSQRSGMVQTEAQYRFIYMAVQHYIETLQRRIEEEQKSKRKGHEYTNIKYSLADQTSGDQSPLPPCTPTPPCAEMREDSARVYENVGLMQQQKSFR
Usually IC50 stands for the concentration needed to halve the response being measured. Low values mean inhibition by little substance, high ones a need for much substance. Take `CC1(N)CCN(c2cnc3c(Oc4ccncc4C(F)(F)F)n[nH]c3n2)CC1` [Compound 51]: the IC50 is below 1000 nM. In turn, `Cc1cc(Oc2n[nH]c3nc(N4CCC(C)(N)CC4)cnc23)ccn1` [Compound 23] gave an IC50 below 1000 nM. Then `CC(Oc1n[nH]c2nc(N3CCC(C)(N)CC3)cnc12)c1ccccc1` (stereo not drawn) [Compound 28], with below 1000 nM; and `CC1(N)CCN(c2cnc3c(Oc4ccnc(NC5COC5)c4Cl)n[nH]c3n2)CC1` [Compound 58], with 1000 to 10000 nM. The compound `COc1nccc(Oc2n[nH]c3nc(N4CCC(C)(N)CC4)cnc23)c1Cl` [Compound 50] showed an IC50 below 1000 nM. `COc1nccc(Oc2n[nH]c3nc(N4CCC(C)(N)CC4)cnc23)c1C#N` [Compound 47] returned an IC50 below 1000 nM. `Cc1nccc(Oc2n[nH]c3nc(N4CC[C@@H](N)C[C@@H]4C)cnc23)c1Cl` [Compound 38] yielded an IC50 below 1000 nM. As for `CC1(N)CCN(c2cnc3c(Oc4ccccc4C#N)n[nH]c3n2)CC1` [Compound 26], the figure is below 1000 nM; as for `CC1(N)CCN(c2cnc3c(Oc4cc(Br)ncc4Cl)n[nH]c3n2)CC1` [Compound 59], below 1000 nM; as for `Cn1cc(-c2nccc(Oc3n[nH]c4nc(N5CCC(C)(N)CC5)cnc34)c2Cl)cn1` [Compound 60], below 1000 nM. `CC1(N)CCN(c2cnc3c(Oc4ccc(N)cc4Cl)n[nH]c3n2)CC1` [Compound 36] had an IC50 below 1000 nM.

The compound `CC1(N)CCN(c2cnc3c(Oc4ncccc4C#N)n[nH]c3n2)CC1` [Compound 27] yielded a half-maximal inhibitory concentration (IC50) below 1000 nM. As for `CC1(N)CCN(c2cnc3c(Oc4ccccc4Cl)n[nH]c3n2)CC1` [Compound 31], the figure is below 1000 nM; as for `CC1(N)CCN(c2cnc3c(OCc4ccccc4)n[nH]c3n2)CC1` [Compound 22], below 1000 nM; as for `CC1(CN)CCN(c2cnc3c(Oc4ccnc(Cl)c4Cl)n[nH]c3n2)CC1` [Compound 56], below 1000 nM.

As for `CC1(N)CCN(c2cnc3c(OCc4ccncc4Cl)n[nH]c3n2)CC1` [Compound 40], the IC50 was below 1000 nM.

Consider `CC1(N)CCN(c2cnc3c(Oc4ccnc(C(N)=O)c4Cl)n[nH]c3n2)CC1` [Compound 55], for which the IC50 was below 1000 nM.

Compound `COc1ccc(Cn2nc(Oc3ccnc(Cl)c3Cl)c3ncc(N4CCC(O)(CN)CC4)nc32)cc1` [Compound 64] returned an IC50 of at least 10000 nM. `Cc1cnccc1Oc1n[nH]c2nc(N3CCC(C)(N)CC3)cnc12` [Compound 24]: the IC50 is below 1000 nM. As for `CC1(N)CCN(c2cnc3c(OCc4cccnc4)n[nH]c3n2)CC1` [Compound 25], the figure is 1000 to 10000 nM; as for `CC1(N)CCN(c2cnc3c(Oc4ccnc(N5CCOCC5)c4Cl)n[nH]c3n2)CC1` [Compound 62], below 1000 nM; as for `CC1(N)CCN(c2cnc3c(Oc4ccnc(Cl)c4Cl)n[nH]c3n2)CC1` [Compound 54], below 1000 nM. As for `CC1(N)CCN(c2cnc3c(Oc4cc(N)ncc4Cl)n[nH]c3n2)CC1` [Compound 42], the figure is below 1000 nM. `Cc1nccc(Oc2n[nH]c3nc(N4CCC(O)(CN)CC4)cnc23)c1Cl` [Compound 49]: the IC50 is below 1000 nM. In the case of `CC1(N)CCN(c2cnc3c(N4CCCCc5ccccc54)n[nH]c3n2)CC1` [Compound 82], the IC50 was below 1000 nM. As for `CC1(CN)CCN(c2cnc3c(Oc4ccnc(N)c4Cl)n[nH]c3n2)C1` (stereo not drawn) [Compound 43], the figure is below 1000 nM; as for `CC1(N)CCN(c2cnc3c(Oc4ccnc(-c5nccs5)c4Cl)n[nH]c3n2)CC1` [Compound 61], below 1000 nM. In turn, `CC1(N)CCN(c2cnc3c(Oc4ccccc4)n[nH]c3n2)CC1` [Compound 20] displayed a half-maximal inhibitory concentration (IC50) below 1000 nM.

Consider `CC1(CN)CCN(c2cnc3c(Oc4ccnc(N)c4Cl)n[nH]c3n2)CC1` [Compound 48], for which the IC50 is below 1000 nM.

Compound `CC1(N)CCN(c2cnc3c(Oc4ccncc4Cl)n[nH]c3n2)CC1` [Compound 32] registered a concentration for half-maximal inhibition (IC50) below 1000 nM. For `C[C@H]1C[C@H](N)CCN1c1cnc2c(Oc3ccnc(Cl)c3Cl)n[nH]c2n1` [Compound 53], the IC50 was below 1000 nM.

`Cc1nccc(Oc2n[nH]c3nc(N4CCC(C)(N)CC4)cnc23)c1Cl` [Compound 39] showed a half-inhibitory concentration (IC50) below 1000 nM. As for `CC1(N)CCN(c2cnc3c(OCc4cccnc4N)n[nH]c3n2)CC1` [Compound 30], the figure is below 1000 nM; as for `CC1(N)CCN(c2cnc3c(Oc4cccc(C(F)F)n4)n[nH]c3n2)CC1` [Compound 44], 1000 to 10000 nM; as for `CC1(N)CCN(c2cnc3c(Oc4ccnc(O)c4Cl)n[nH]c3n2)CC1` [Compound 45], below 1000 nM. With `Cc1cc(Oc2n[nH]c3nc(N4CCC(C)(N)CC4)cnc23)c(Cl)cn1` [Compound 37], the concentration for half-maximal inhibition (IC50) is below 1000 nM. For `CC(=O)N1CCCC(Oc2n[nH]c3nc(N4CCC(C)(N)CC4)cnc23)C1` (stereo not drawn) [Compound 35], the IC50 is 1000 to 10000 nM. `COc1ccc(Cn2nc(Oc3ccnc(Cl)c3Cl)c3ncc(N4CC[C@@H](N)C[C@@H]4C)nc32)cc1` [Compound 63] yielded an IC50 of at least 10000 nM. As for `CC1(N)CCN(c2cnc3c(OCc4ccccc4C#N)n[nH]c3n2)CC1` [Compound 33], the figure is below 1000 nM. As for `CC1(N)CCN(c2cnc3c(OCc4cccc5[nH]ccc45)n[nH]c3n2)CC1` [Compound 46], the figure is below 1000 nM. The compound `CC1(N)CCN(c2cnc3c(OC4CCCNC4)n[nH]c3n2)CC1` (stereo not drawn) [Compound 21] showed an IC50 of at least 10000 nM. `CC1(CN)CCN(c2cnc3c(Oc4ccnc(Cl)c4Cl)n[nH]c3n2)C1` (stereo not drawn) [Compound 52] gave a half-inhibitory concentration (IC50) below 1000 nM.

`NCC1(O)CCN(c2cnc3c(Oc4ccnc(Cl)c4Cl)n[nH]c3n2)CC1` [Compound 57] showed an IC50 below 1000 nM. Then `Cc1nccc(Oc2n[nH]c3nc(N4CCC(C)(N)CC4)cnc23)c1C` [Compound 29], with below 1000 nM; and `CC1(N)CCN(c2cnc3c(Oc4ccc(N)cc4C#N)n[nH]c3n2)CC1` [Compound 34], with below 1000 nM.
